Assay results taken from patent publication US12501900B2, “Heterocyclyl pyridazine as fungicidal compounds” (Bayer Aktiengesellschaft, priority 2018, dated 2025).
Read-outs that look alike come from different tables or passages of the source.

Assay: Measurement of LogP values by HPLC on reversed phase columns (EEC directive 79/831 Annex V.A8), methods [a], [b], [c]
Type: physicochemical
Description: Measurement of Log P values as provided herein was performed according to EEC directive 79/831 Annex V.A8 by HPLC (High Performance Liquid Chromatography) on reversed phase columns with the following methods: • ^[a]
If more than one Log P value is available within the same method, all the values are given and separated by “+”.
Lambda-max-values were determined using UV-spectra from 200 nm to 400 nm and the peak values of the chromatographic signals

[1] = method [a]: LC-UV, acidic range, 0.1% formic acid in water and acetonitrile, Table 7, compounds of formula (3)
[2] = method [a], Table 9, compounds of formula (4)
[3] = method [a]: LC-UV, acidic range, 0.1% formic acid in water and acetonitrile, Table 11, compounds of formula (6)
[4] = method [a]: LC-UV, acidic range, 0.1% formic acid in water and acetonitrile, Table 3, compounds of formula (1)
[5] = method [a]: LC-UV, acidic range, 0.1% formic acid in water and acetonitrile, Table 15, compounds of formula (9)
[6] = method [a]: LC-UV, acidic range, 0.1% formic acid in water and acetonitrile, Table 17, compounds of formula (10)
[7] = method [a], Table 19, compounds of formula (12), two values joined by & in some cells

For `Cc1ccc(OCC(N)CON2C(=O)c3ccccc3C2=O)c(C)c1` (racemic) [2-12, 2-[rac-2-amino-3-(2,4-dimethylphenoxy)propoxy]isoindoline-1,3-dione 2,2,2-trifluoroacetate], the chromatographic logP (reversed phase HPLC column, method [a]: LC-UV, acidic range, 0.1% formic acid in water and acetonitrile, Table 5, compounds of formula (2)) was 1.7.

`Cc1ccc(OCC(CON2C(=O)c3ccccc3C2=O)NC(=O)OC(C)(C)C)c(C)c1` (racemic) [2-13, tert-butyl N-[rac-1-[(2,4-dimethylphenoxy)methyl]-2-(1,3-dioxoisoindolin-2-yl)oxy-ethyl]carbamate] gave a chromatographic logP (method [a]: LC-UV, acidic range, 0.1% formic acid in water and acetonitrile, Table 5, compounds of formula (2)) of 4.51.

With `Cc1ccc(CC(CON2C(=O)c3ccccc3C2=O)NC(=O)c2cc(Cl)nnc2Oc2cccc(C(F)(F)F)c2)c(C)c1` (racemic) [3-16, 6-chloro-N-[rac-1-[(2,4-dimethylphenyl)methyl]-2-(1,3-dioxoisoindolin-2-yl)oxy-ethyl]-3-[3-(trifluoromethyl)phenoxy]pyridazine-4-carboxamide] the chromatographic logP [1] was 5.

For `Cc1ccc(OCC(CON2C(=O)c3ccccc3C2=O)NC(=O)c2cc(C)nnc2Oc2cccc(C(F)(F)F)c2)c(C)c1` (racemic) [3-33, 6-methyl-N-[rac-1-[(2,4-dimethylphenoxy)methyl]-2-(1,3-dioxoisoindolin-2-yl)oxy-ethyl]-3-[3-(trifluoromethyl)phenoxy]pyridazine-4-carboxamide], the chromatographic logP [1] was 4.56.

With `Cc1ccc(CC(CON)NC(=O)c2cc(Cl)nnc2Oc2cccc(C(F)(F)F)c2)c(C)c1` (racemic) [4-17, 6-chloro-N-[rac-1-(aminooxymethyl)-2-(2,4-dimethylphenyl)ethyl]-3-[3-(trifluoro-methyl)phenoxy]pyridazine-4-carboxamide] the chromatographic logP [2] was 3.37.

`Cc1ccc(OCC(CON)NC(=O)c2cc(C)nnc2Oc2cccc(C(F)(F)F)c2)c(C)c1` (racemic) [4-33, 6-methyl-N-[rac-1-(aminooxymethyl)-2-(2,4-dimethylphenoxy)ethyl]-3-[3-(trifluoromethyl)phenoxy]pyridazine-4-carboxamide] showed a chromatographic logP [2] of 3.13.

`Cc1ccc(CC(CON2C(=O)c3ccccc3C2=O)NC(=O)c2cc(Cl)nnc2Cl)c(C)c1` (racemic) [6-01, 3,6-dichloro-N-[rac-1-[(2,4-dimethylphenyl)methyl]-2-(1,3-dioxoisoindolin-2-yl)oxy-ethyl]pyridazine-4-carboxamide] gave a chromatographic logP [3] of 3.72.

`Cc1ccc(CC(CON)NC(=O)c2cc(Cl)nnc2Cl)c(C)c1` (racemic) [6-02, 3,6-dichloro-N-[rac-1-(aminooxymethyl)-2-(2,4-dimethylphenyl)ethyl]pyridazine-4-carboxamide] showed a chromatographic logP [3] of 1.93.

With `Cc1ccc(CC2CON=C(c3cc(Cl)nnc3Cl)N2)c(C)c1` (racemic) [7-01, rac-3-(3,6-dichloropyridazin-4-yl)-5-[(2,4-dimethylphenyl)methyl]-5,6-dihydro-4H-1,2,4-oxadiazine] the chromatographic logP (method [a]: LC-UV, acidic range, 0.1% formic acid in water and acetonitrile, Table 13, compounds of formula (7)) was 2.98.

With `Cc1cc(C2=NOCC(O)N2)c(Oc2cccc(C(F)(F)F)c2)nn1` (racemic) [14-01, rac-3-[6-methyl-3-[3-(trifluoromethyl)phenoxy]pyridazin-4-yl]-5,6-dihydro-4H-1,2,4-oxadiazin-5-ol] the chromatographic logP (method [a]: LC-UV, acidic range, 0.1% formic acid in water and acetonitrile, Table 23, compounds of formula (14)) was 1.59.

In the case of `Cc1c(Cl)nnc(Oc2cccc(C3CC3)c2F)c1C(=O)O` [1-02, 6-chloro-3-(3-cyclopropyl-2-fluoro-phenoxy)-5-methyl-pyridazine-4-carboxylic acid], the chromatographic logP [4] was 1.84.

In the case of `CON(C)C(=O)c1cc(C)nnc1Oc1cccc(C(F)(F)F)c1` [1-03], the LogP [4] was 2.33^[a].

For `CON(C)C(=O)c1cc(Cl)nnc1Oc1cccc(C(F)(F)F)c1` [1-07, 6-chloro-N-methoxy-N-methyl-3-[3-(trifluoromethyl)phenoxy]pyridazine-4-carboxamide], the chromatographic logP (reversed phase HPLC column, method [a]: LC-UV, acidic range, 0.1% formic acid in water and acetonitrile, Table 3, compounds of formula (1)) was 2.9.

With `Cc1cc(C#N)c(Oc2cccc(C(F)(F)F)c2)nn1` [9-02, 6-methyl-3-[3-(trifluoromethyl)phenoxy]pyridazine-4-carbonitrile] the chromatographic logP [5] was 2.84.

In the case of `N#Cc1cc(Cl)nnc1Oc1cccc(C(F)(F)F)c1` [9-03, 6-chloro-3-[3-(trifluoromethyl)phenoxy]pyridazine-4-carbonitrile], the chromatographic logP [5] was 3.25.

With `COc1cccc(Oc2nnc(Cl)cc2C#N)c1` [9-08] the LogP [5] was 2.75^[a].

Work on `Cc1cc(C(N)=NO)c(Oc2cccc(C(F)(F)F)c2)nn1` [10-02, N′-hydroxy-6-methyl-3-[3-(trifluoromethyl)phenoxy]pyridazine-4-carboxamidine] yielded a chromatographic logP [6] of 1.69.

In the case of `NC(=NO)c1cc(Cl)nnc1Oc1cccc(Cl)c1` [10-04], the LogP [6] was 2.00^[a].

With `NC(=NO)c1cc(Cl)nnc1Oc1cccc(Br)c1F` [10-05] the LogP [6] was 2.21^[a].

In the case of `NC(=NO)c1cc(Cl)nnc1Oc1cccc(C2CC2)c1F` [10-07], the LogP [6] was 2.34^[a].

With `NC(=NO)c1cc(Cl)nnc1Oc1cccc(C2CC2)c1` [10-08] the LogP [6] was 2.19^[a].

For `NC(=NO)c1cc(Cl)nnc1Oc1cccc(C(F)F)c1F` [10-09], the LogP [6] was 1.91^[a].

In the case of `Cc1cc(C(N)=NOCC(=O)c2ccc(Cl)cc2)c(Oc2cccc(C(F)(F)F)c2)nn1` [12-03, N′-[2-(4-chlorophenyl)-2-oxo-ethoxy]-6-methyl-3-[3-(trifluoro-methyl)phenoxy]pyridazine-4-carboxamidine], the chromatographic logP [7] was 3.42.

For `COc1ccc(C(=O)C(F)(F)ON=C(N)c2cc(C)nnc2Oc2cccc(C(F)(F)F)c2)cc1` [12-14, N′-[1,1-difluoro-2-(4-methoxyphenyl)-2-oxo-ethoxy]-6-methyl-3-[3-(trifluoro-methyl)phenoxy]pyridazine-4-carboxamidine], the chromatographic logP [7] was 3.13.

In the case of `C=CCON=C(N)c1cc(C)nnc1Oc1cccc(C(F)(F)F)c1` [13-01, N′-allyloxy-6-methyl-3-[3-(trifluoromethyl)phenoxy]pyridazine-4-carboxamidine], the chromatographic logP (method [a]: LC-UV, acidic range, 0.1% formic acid in water and acetonitrile, Table 21, compounds of formula (13)) was 2.88.

In the case of `O=Cc1cc(Cl)nnc1Oc1cccc(C(F)(F)F)c1` [16-01, 6-chloro-3-[3-(trifluoromethyl)phenoxy]pyridazine-4-carbaldehyde], the chromatographic logP (method [a]: LC-UV, acidic range, 0.1% formic acid in water and acetonitrile, Table 25, compound of formula (16)) was 2.04.

`O/N=C/c1cc(Cl)nnc1Oc1cccc(C(F)(F)F)c1` [17-01, 6-chloro-3-[3-(trifluoromethyl)phenoxy]pyridazine-4-carbaldehyde oxime] showed a chromatographic logP (reversed phase HPLC column, method [a]: LC-UV, acidic range, 0.1% formic acid in water and acetonitrile, Table 27, compound of formula (17)) of 2.88.

`Cc1ccc(CC(CCl)NC(=NO)c2cc(Cl)nnc2Oc2cccc(C(F)(F)F)c2)c(C)c1` (centres unmarked) [20-01, 6-chloro-N-[1-(chloromethyl)-2-(2,4-dimethylphenyl)ethyl]-N′-hydroxy-3-[3-(trifluoromethyl)phenoxy]pyridazine-4-carboxamidine] gave a chromatographic logP (method [a], Table 29, compounds of formula (20), read-out: Log P) of 4.34.

`Cc1ccc(CC(CCl)NC(=O)c2cc(Cl)nnc2Oc2cccc(C(F)(F)F)c2)c(C)c1` (centres unmarked) [21-01, 6-chloro-N-[1-(chloromethyl)-2-(2,4-dimethylphenyl)ethyl]-3-[3-(trifluoro-methyl)phenoxy]pyridazine-4-carboxamide] gave a chromatographic logP (method [a], Table 33, compounds of formula (21)) of 5.
